In ChEMBL document CHEMBL1159108, “Synthesis and antimicrobial activity of 2-fluorophenyl-4,6-disubstituted [1,3,5]triazines” (2010):
In brackets after ≈: the same amount, converted by molar mass.

Experiments:
[1] = system: Staphylococcus epidermidis; assay: Antibacterial activity against methicillin-sensitive Staphylococcus epidermidis ATCC 155-U; type: functional
Bacillus cereus = assay: Antibacterial activity against Bacillus cereus ATCC 13061; type: functional
Candida albicans [2] = assay: Antifungal activity against Candida albicans ATCC 10231; type: functional
Enterococcus faecium = assay: Antibacterial activity against vancomycin-resistant Enterococcus faecium ATCC 49624; type: functional
Staphylococcus aureus [3] = assay: Antibacterial activity against vancomycin-resistant Staphylococcus aureus; type: functional
Streptococcus pneumoniae [4] = assay: Antibacterial activity against Streptococcus pneumoniae; type: functional
Staphylococcus aureus [5] = assay: Antibacterial activity against methicillin-resistant Staphylococcus aureus; type: functional
Streptococcus pneumoniae [6] = assay: Antibacterial activity against multidrug-resistant Streptococcus pneumoniae; type: functional
Staphylococcus cohnii = assay: Antibacterial activity against coagulase negative-susceptible Staphylococcus cohnii; type: functional
Staphylococcus warneri = assay: Antibacterial activity against coagulase negative-susceptible Staphylococcus warneri; type: functional
Cutibacterium acnes = assay: Antibacterial activity against Propionibacterium acnes; type: functional
Enterococcus faecalis = assay: Antibacterial activity against Enterococcus faecalis; type: functional
Candida albicans [7] = assay: Antifungal activity against Candida albicans ATCC 10231

Row | Compound | MIC [1] [µg/mL] | MIC (Bacillus cereus) [µg/mL] | MIC (Candida albicans [2]) [µg/mL] | MIC (Enterococcus faecium) [µg/mL] | MIC (Staphylococcus aureus [3]) [µg/mL] | MIC (Streptococcus pneumoniae [4]) [µg/mL] | MIC (Staphylococcus aureus [5]) [µg/mL] | MIC (Streptococcus pneumoniae [6]) [µg/mL] | MIC (Staphylococcus cohnii) [µg/mL] | MIC (Staphylococcus warneri) [µg/mL] | MIC (Cutibacterium acnes) [µg/mL] | MIC (Enterococcus faecalis) [µg/mL] | MIC (Candida albicans [7]) [µg/mL]
1 | CC1(C)CC(Nc2nc(Nc3cccc(F)c3)nc(-c3cccc(F)c3)n2)CC(C)(C)N1 | 2 (≈ 4.56 µM) | 4 (≈ 9.12 µM) | 32 (≈ 73 µM) | 4 (≈ 9.12 µM) | – | – | – | – | – | – | – | – | –
2 | O=C(O)c1cn(C2CC2)c2cc(N3CCNCC3)c(F)cc2c1=O [CIPROFLOXACIN] | > 16 | – | – | > 16 | > 16 | > 16 | > 16 | 1 (≈ 3.02 µM) | 0.12 (≈ 0.362 µM) | > 16 | 0.5 (≈ 1.51 µM) | > 16 | –
3 | NCCCCCNc1nc(Nc2cccc(F)c2)nc(-c2ccc(F)cc2)n1 | 2 (≈ 5.2 µM) | 4 (≈ 10.4 µM) | 4 (≈ 10.4 µM) | 8 (≈ 20.8 µM) | – | – | – | – | – | – | – | – | –
4 | NCCCCCNc1nc(-c2cccc(F)c2)nc(-c2cccc(F)c2)n1 | 2 (≈ 5.41 µM) | – | 4 (≈ 10.8 µM) | 8 (≈ 21.7 µM) | – | – | – | – | – | – | – | – | –
5 | NCCCCCNc1nc(NCCc2ccc(O)cc2)nc(Nc2ccc(F)cc2)n1 | 64 (≈ 150 µM) | 16 (≈ 37.6 µM) | > 100 | 128 (≈ 301 µM) | 64 (≈ 150 µM) | 64 (≈ 150 µM) | 128 (≈ 301 µM) | 64 (≈ 150 µM) | 32 (≈ 75.2 µM) | 64 (≈ 150 µM) | 32 (≈ 75.2 µM) | 128 (≈ 301 µM) | > 100
6 | NCCCCCCCNc1nc(Nc2cccc(F)c2)nc(-c2cccc(F)c2)n1 | 8 (≈ 19.4 µM) | 16 (≈ 38.8 µM) | 64 (≈ 155 µM) | 16 (≈ 38.8 µM) | – | – | – | – | – | – | – | – | –
7 | NCCCCCNc1nc(Nc2cccc(F)c2)nc(-c2cc(F)cc(F)c2)n1 | 4 (≈ 9.94 µM) | 16 (≈ 39.8 µM) | 16 (≈ 39.8 µM) | 8 (≈ 19.9 µM) | – | – | – | – | – | – | – | – | 16 (≈ 39.8 µM)
8 | NCc1ccc(CNc2nc(Nc3cccc(F)c3)nc(-c3cccc(F)c3)n2)cc1 | 4 (≈ 9.56 µM) | 16 (≈ 38.2 µM) | 16 (≈ 38.2 µM) | 8 (≈ 19.1 µM) | – | – | – | – | – | – | – | – | –
9 | NCCN(CCN)c1nc(NCCc2ccc(O)cc2)nc(-c2cccc(F)c2)n1 | 4 (≈ 9.72 µM) | 8 (≈ 19.4 µM) | > 100 | 8 (≈ 19.4 µM) | – | – | – | – | – | – | – | – | > 100
10 | C[C@@H]1[C@H](O)[C@@H](C)/C=C/C=C/C=C/C=C/C=C/C=C/C=C/[C@H](O[C@@H]2O[C@H](C)[C@@H](O)[C@H](N)[C@@H]2O)C[C@@H]2O[C@](O)(C[C@@H](O)C[C@@H](O)[C@H](O)CC[C@@H](O)C[C@@H](O)CC(=O)O[C@H]1C)C[C@H](O)[C@H]2C(=O)O [AMPHOTERICIN B] | – | – | 1 (≈ 1.08 µM) | – | – | – | – | – | – | – | – | – | –
11 | NCCCCCCNc1nc(Nc2cccc(F)c2)nc(-c2cccc(F)c2)n1 | 2 (≈ 5.02 µM) | 16 (≈ 40.2 µM) | 16 (≈ 40.2 µM) | 4 (≈ 10 µM) | – | – | – | – | – | – | – | – | 16 (≈ 40.2 µM)
12 | CC(C)(CN)CNc1nc(Nc2cccc(F)c2)nc(-c2cccc(F)c2)n1 | 2 (≈ 5.2 µM) | 8 (≈ 20.8 µM) | 4 (≈ 10.4 µM) | 8 (≈ 20.8 µM) | – | – | – | – | – | – | – | – | –
13 | NCCCCCNc1nc(Nc2cccc(F)c2)nc(-c2ccccc2F)n1 | 4 (≈ 10.4 µM) | 64 (≈ 166 µM) | 16 (≈ 41.6 µM) | 8 (≈ 20.8 µM) | – | – | – | – | – | – | – | – | –
14 | NCCCCCNc1nc(Nc2ccc(F)cc2)nc(-c2cccnc2)n1 | 16 (≈ 43.5 µM) | > 100 | > 100 | > 100 | – | – | – | – | – | – | – | – | > 100
15 | Fc1cccc(Nc2nc(NC3CCCNC3)nc(-c3cccc(F)c3)n2)c1 (centres undefined) | 2 (≈ 5.23 µM) | 8 (≈ 20.9 µM) | 8 (≈ 20.9 µM) | 4 (≈ 10.5 µM) | – | – | – | – | – | – | – | – | 8 (≈ 20.9 µM)
16 | NCCCCCNc1nc(Nc2cccc(F)c2)nc(-c2cccc(O)c2)n1 | 8 (≈ 20.9 µM) | 8 (≈ 20.9 µM) | 32 (≈ 83.7 µM) | 8 (≈ 20.9 µM) | – | – | – | – | – | – | – | – | –
17 | NCCCCCNc1nc(Nc2cccc(F)c2)nc(-c2cccnc2)n1 | 8 (≈ 21.8 µM) | > 100 | > 100 | 16 (≈ 43.5 µM) | – | – | – | – | – | – | – | – | > 100
18 | NCCCCCNc1nc(NCCc2ccc(O)cc2)nc(-c2cccc(F)c2)n1 | 8 (≈ 19.5 µM) | 8 (≈ 19.5 µM) | > 100 | 16 (≈ 39 µM) | – | – | – | – | – | – | – | – | > 100
19 | NCCCCCNc1nc(Nc2cccc(F)c2)nc(-c2cncc(F)c2)n1 | 32 (≈ 83 µM) | 32 (≈ 83 µM) | > 100 | 32 (≈ 83 µM) | – | – | – | – | – | – | – | – | > 100
20 | NCCCCCNc1nc(Nc2cccc(F)c2)nc(-c2cccc(F)c2)n1 | 8 (≈ 20.8 µM) | 8 (≈ 20.8 µM) | 8 (≈ 20.8 µM) | 4 (≈ 10.4 µM) | 8 (≈ 20.8 µM) | 8 (≈ 20.8 µM) | 8 (≈ 20.8 µM) | 8 (≈ 20.8 µM) | 2 (≈ 5.2 µM) | 4 (≈ 10.4 µM) | 16 (≈ 41.6 µM) | 8 (≈ 20.8 µM) | 8 (≈ 20.8 µM)
21 | NCCCCCNc1nc(NCCc2ccc(O)cc2)nc(-c2ccc(F)cc2)n1 | – | 4 (≈ 9.74 µM) | > 100 | – | – | – | – | – | – | – | – | – | > 100
22 | NCCN(CCN)c1nc(NCCc2ccc(O)cc2)nc(-c2ccc(F)cc2)n1 | 8 (≈ 19.4 µM) | 16 (≈ 38.9 µM) | 32 (≈ 77.8 µM) | 16 (≈ 38.9 µM) | – | – | – | – | – | – | – | – | –
23 | NCCCCCNc1nc(Nc2ccc(F)cc2)nc(-c2cccc(F)c2)n1 | 2 (≈ 5.2 µM) | 4 (≈ 10.4 µM) | 4 (≈ 10.4 µM) | 8 (≈ 20.8 µM) | – | – | – | – | – | – | – | – | –
24 | CN[C@@H]1[C@H](O[C@H]2[C@H](O[C@H]3[C@H](O)[C@@H](O)[C@H](N=C(N)N)[C@@H](O)[C@@H]3N=C(N)N)O[C@@H](C)[C@]2(O)C=O)O[C@@H](CO)[C@H](O)[C@H]1O.CN[C@@H]1[C@H](O[C@H]2[C@H](O[C@H]3[C@H](O)[C@@H](O)[C@H](N=C(N)N)[C@@H](O)[C@@H]3N=C(N)N)O[C@@H](C)[C@]2(O)C=O)O[C@@H](CO)[C@H](O)[C@H]1O.O=S(=O)(O)O.O=S(=O)(O)O.O=S(=O)(O)O [STREPTOMYCIN SULFATE] | > 16 | 8 | – | > 16 | – | – | – | – | – | – | – | – | –
25 | NCC1(CNc2nc(Nc3cccc(F)c3)nc(-c3cccc(F)c3)n2)CCCC1 | 16 (≈ 39 µM) | 32 (≈ 78 µM) | 8 (≈ 19.5 µM) | 32 (≈ 78 µM) | – | – | – | – | – | – | – | – | –
26 | NCCCCCNc1nc(Nc2cccc(C(F)(F)F)c2)nc(-c2cccc(F)c2)n1 | 8 (≈ 18.4 µM) | 16 (≈ 36.8 µM) | 16 (≈ 36.8 µM) | 4 (≈ 9.21 µM) | – | – | – | – | – | – | – | – | –
27 | NCC1CCC(CNc2nc(Nc3cccc(F)c3)nc(-c3cccc(F)c3)n2)CC1 (centres undefined) | 8 (≈ 18.8 µM) | 8 (≈ 18.8 µM) | 64 (≈ 151 µM) | 8 (≈ 18.8 µM) | – | – | – | – | – | – | – | – | –
